Experimental data from PubChem BioAssay AID1845195 (Molecular Pharmacology Branch, DTP, NCI, 2023).

Tested on: 156681-154-R-J1 tumor spheroid viability
Assay: Anticancer human tumor 156681-154-R-J1 patient-derived melanoma cell line growth inhibition
Conditions: spheroids with HUVEC and MSC; for IC50: curve of first compound; for viability, T/C: stronger effect = lower value
How it was run: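 Complex spheroids of malignant cells with endothelial cells and mesenchymal stem cells; agents alone or combined, from near clinical Cmax (or 10 microM if unknown) down in half-log steps, 0.25% DMSO final.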

[1] = second compound 30 pM, first compound 0.00949 µM
[2] = second compound 30 pM, first compound 0.03 µM
[3] = second compound 30 pM, first compound 0.0949 µM
[4] = second compound 30 pM, first compound 0.3 µM
[5] = second compound 30 pM, first compound 0.949 µM
[6] = second compound 30 pM, first compound 3 µM
[7] = second compound 94.9 pM, first compound 0.00949 µM
[8] = second compound 94.9 pM, first compound 0.03 µM
[9] = second compound 94.9 pM, first compound 0.0949 µM
[10] = second compound 94.9 pM, first compound 0.3 µM
[11] = second compound 94.9 pM, first compound 0.949 µM
[12] = second compound 94.9 pM, first compound 3 µM
[13] = second compound 0.0003 µM, first compound 0.00949 µM
[14] = second compound 0.0003 µM, first compound 0.03 µM
[15] = second compound 0.0003 µM, first compound 0.0949 µM
[16] = second compound 0.0003 µM, first compound 0.3 µM
[17] = second compound 0.0003 µM, first compound 0.949 µM
[18] = second compound 0.0003 µM, first compound 3 µM
[19] = second compound 0.000949 µM, first compound 0.00949 µM
[20] = second compound 0.000949 µM, first compound 0.03 µM
[21] = second compound 0.000949 µM, first compound 0.0949 µM
[22] = second compound 0.000949 µM, first compound 0.3 µM
[23] = second compound 0.000949 µM, first compound 0.949 µM
[24] = second compound 0.000949 µM, first compound 3 µM
[25] = second compound 0.003 µM, first compound 0.00949 µM
[26] = second compound 0.003 µM, first compound 0.03 µM
[27] = second compound 0.003 µM, first compound 0.0949 µM
[28] = second compound 0.003 µM, first compound 0.3 µM
[29] = second compound 0.003 µM, first compound 0.949 µM
[30] = second compound 0.003 µM, first compound 3 µM
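Also: spheroids exposed to compounds for 7 days before readout.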
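For viability, T/C in this document: percent of vehicle control viability where 100% = DMSO-treated spheroids.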

| Compound | IC50 (second compound 30 pM) | IC50 (second compound 94.9 pM) | IC50 (second compound 0.0003 µM) | IC50 (second compound 0.000949 µM) | IC50 (second compound 0.003 µM) | viability, T/C [1] | viability, T/C [2] | viability, T/C [3] | viability, T/C [4] | viability, T/C [5] | viability, T/C [6] | viability, T/C [7] | viability, T/C [8] | viability, T/C [9] | viability, T/C [10] | viability, T/C [11] | viability, T/C [12] | viability, T/C [13] | viability, T/C [14] | viability, T/C [15] | other results |
| --- | --- | --- | --- | --- | --- | --- | --- | --- | --- | --- | --- | --- | --- | --- | --- | --- | --- | --- | --- | --- | --- |
| CNCc1ccc(-c2cc(-c3nc(-c4ccc(S(=O)(=O)C(C)C)cc4)cnc3N)on2)cc1 + COc1cc2c(cc1O)CCNC21CSC2c3c(OC(C)=O)c(C)c4c(c3C(COC1=O)N1C(O)C3Cc5cc(C)c(OC)c(O)c5C(C21)N3C)OCO4 | 1120 nM | 870 nM | 581 nM | < 9.49 nM | < 9.49 nM | 119% | 103% | 99% | 85.2% | 53.5% | 17% | 112% | 113% | 101% | 77.1% | 49.3% | 2.05% | 90.6% | 100% | 90.4% | viability, T/C [16]: 69.1%; viability, T/C [17]: 35.4%; viability, T/C [18]: 1.71%; viability, T/C [19]: 3.5%; viability, T/C [20]: 5.91%; viability, T/C [21]: 4.37%; viability, T/C [22]: 3.55%; viability, T/C [23]: 1.04%; viability, T/C [24]: 0.15%; viability, T/C [25]: 0.16%; viability, T/C [26]: 0.17%; viability, T/C [27]: 0.17%; viability, T/C [28]: 0.12%; viability, T/C [29]: 0.12%; viability, T/C [30]: 0.24% |
| Cc1sc2c(c1C)C(c1ccc(Cl)cc1)=NC(CC(=O)Nc1ccc(O)cc1)c1nnc(C)n1-2 (stereo not given) + COc1cc2c(cc1O)CCNC21CSC2c3c(OC(C)=O)c(C)c4c(c3C(COC1=O)N1C(O)C3Cc5cc(C)c(OC)c(O)c5C(C21)N3C)OCO4 | > 3000 nM | 2030 nM | 197 nM | < 9.49 nM | < 9.49 nM | 104% | 92.1% | 103% | 109% | 68.3% | 61.8% | 108% | 97.1% | 95.8% | 85.5% | 82.5% | 34.7% | 90.7% | 76.7% | 64.9% | viability, T/C [16]: 45.2%; viability, T/C [17]: 15.7%; viability, T/C [18]: 9.14%; viability, T/C [19]: 1.73%; viability, T/C [20]: 3.32%; viability, T/C [21]: 2.97%; viability, T/C [22]: 1.78%; viability, T/C [23]: 0.17%; viability, T/C [24]: 0.15%; viability, T/C [25]: 0.14%; viability, T/C [26]: 0.17%; viability, T/C [27]: 0.12%; viability, T/C [28]: 0.12%; viability, T/C [29]: 0.12%; viability, T/C [30]: 0.21% |
| Cn1ncnc1[C@H]1c2n[nH]c(=O)c3cc(F)cc(c23)N[C@@H]1c1ccc(F)cc1 + COc1cc2c(cc1O)CCNC21CSC2c3c(OC(C)=O)c(C)c4c(c3C(COC1=O)N1C(O)C3Cc5cc(C)c(OC)c(O)c5C(C21)N3C)OCO4 | 1440 nM | 688 nM | 97 nM | < 9.49 nM | < 9.49 nM | 82% | 91.7% | 97.9% | 72.4% | 70.9% | 19.1% | 97.5% | 80.7% | 91.9% | 73.3% | 40.8% | 14% | 48.5% | 53.7% | 51% | viability, T/C [16]: 36.6%; viability, T/C [17]: 15.2%; viability, T/C [18]: 11.3%; viability, T/C [19]: 10%; viability, T/C [20]: 4.38%; viability, T/C [21]: 4.05%; viability, T/C [22]: 2.68%; viability, T/C [23]: 1%; viability, T/C [24]: 0.14%; viability, T/C [25]: 0.15%; viability, T/C [26]: 0.14%; viability, T/C [27]: 0.55%; viability, T/C [28]: 0.12%; viability, T/C [29]: 0.13%; viability, T/C [30]: 0.18% |
